Results reported in patent US20070043108A1, “Use of equol for ameliorating or preventing neuropsychiatric and neurodegenerative diseases or disorders” (priority 2002, published 2007).
Where “and” joins values, the source holds several entries; their conditions need not be identical. Equal values may be shown once.

Columns and labels:
[1] = test system: Male Long-Evans rats; assay: Example 13: racemic equol injections in male rats on Phyto-Free diet; assay type: in vivo, rat
Text: Prior to initiation of a Phyto-Free diet period Male Long-Evans rats are fed a Phyto-200 diet, as described in previous examples. The rats are placed on a diet containing the Phyto-Free diet at approximately 52 days of age and randomly assigned to three groups. Baseline body weights after 14 days and 21 days on the Phyto-Free diet for all rats are similar, shown in FIGS. 43 and 44, respectively. Beginning at 73 days of age, rats receive daily subcutaneous 0.1 cc injections of vehicle (peanut oil), 1 milligram of a racemic mixture of equol in vehicle (0.83 mg/kg body weight/day), or 5 milligrams of a racemic mixture of equol in vehicle (4.2 mg/kg body weight/day) once every three days.

[2] = test system: adult Long-Evans male rats; assay: Example 18: elevated plus maze, body weight and hypothalamic volumes in adult male rats treated with equol; assay type: in vivo, rat
Text: In this study, anxiety-related behaviors were examined along with hormone levels in adult Long-Evans male rats exposed to equol. A known and accepted animal behavioral test for psychiatric disorders in humans, such as elevated plus maze (EPM) was used for this purpose (P. Willner, in Behavioral Models in Psychopharmacology: Theoretical, Industrial and Clinical Perspectives, New York, Cambridge Univ. Press, 1991; M. A. Geyer & A. Markou, in Psychopharmacology: The Fourth Generation of Progress, NY, Raven Press, pp. 787-798, 1995; and R. Hitzemann, Alcohol & Res. Health, 24: 149-158, 2000).
The EPM test relies on the inherent conflict between exploration of a novel environment and avoidance of its aversive features. Typically, animals spend little time and make few entries into the open arms (new environment) compared to the closed arms of the maze (secure environment). For example, an anti-anxiety agent or drug would increase the number of entries into and total time spent in the open arms of the maze.
Male rats 50 days of age were given a diet low in phytoestrogens (10 ppm of isoflavones) and remained on this diet until 215 days of age. At 150 days of age the rats were age and body weight matched and then divided into control or equol treatment groups. Starting at 190 days, the male rats received daily subcutaneous (0.1 cc) injections of control vehicle (DMSO) or equol (2.5 mg/Kg) for 25 consecutive days.
After 15 days on the treatments the animals were tested in the EPM that was video-taped for 3 minutes and later recorded for the number of entries into—and the percentage of total time spent—on the open arms via AnyMaze® computer software.
At 215 days of age the animals were sacrificed and body/prostate weights, serum hormone and isoflavone levels were determined along with determining the volume of hypothalamic regions that are sensitive to hormones.
The brains were processed via standard staining and analyzed via Bioquant® for morphometric SDN and AVPV parameters by treatments.

[3] = target: T1, ERα (Rattus norvegicus, UniProt P06211); assay: Competition binding of equol enantiomers with [3H]E2 for in vitro translated ERα
T1 construct: Full length rat ERα expression vector (pcDNA-ERα; RH Price UCSF); made in house; host or cells: TnT-coupled rabbit reticulocyte lysate in vitro translation (Promega)
T1 sequence (P06211 1-600): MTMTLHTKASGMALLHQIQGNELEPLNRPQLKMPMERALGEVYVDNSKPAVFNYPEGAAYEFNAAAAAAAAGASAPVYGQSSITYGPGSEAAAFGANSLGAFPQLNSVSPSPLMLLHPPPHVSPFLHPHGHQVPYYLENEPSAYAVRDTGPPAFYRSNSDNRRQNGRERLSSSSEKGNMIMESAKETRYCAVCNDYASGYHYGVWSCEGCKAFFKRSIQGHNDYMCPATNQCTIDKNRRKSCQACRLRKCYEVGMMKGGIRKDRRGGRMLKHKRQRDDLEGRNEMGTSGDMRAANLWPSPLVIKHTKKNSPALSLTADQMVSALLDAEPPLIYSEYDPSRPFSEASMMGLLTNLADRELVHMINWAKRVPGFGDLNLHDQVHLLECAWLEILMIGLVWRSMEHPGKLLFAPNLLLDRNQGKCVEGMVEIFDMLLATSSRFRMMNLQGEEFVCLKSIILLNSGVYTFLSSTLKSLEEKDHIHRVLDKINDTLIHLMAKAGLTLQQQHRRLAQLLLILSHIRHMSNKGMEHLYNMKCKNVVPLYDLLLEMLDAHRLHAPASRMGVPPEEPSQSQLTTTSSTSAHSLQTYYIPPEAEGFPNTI
Experimental: In vitro binding studies were performed to examine the relative affinities of S— and R-enantiomeric equol with the estrogen receptors ERα and ERβ.
Synthesis of Hormone Receptor Proteins: Full length rat ERα expression vector (pcDNA-ERα; RH Price UCSF) and ERβ expression vector (pcDNA-ERβ; T A Brown, Pfizer, Groton, […].) were used to synthesize hormone receptors in vitro using the TnT-coupled reticulocyte lysate system (Promega, Madison, Wis.) with T7-RNA polymerase, during a 90 min reaction at 30° C. Translation reaction mixtures were stored at −80° C. until further use.
Saturation isotherms: In order to calculate and establish the binding affinity of the S-equol and R-equol enantiomers for ERα and ERβ, 100 μL aliquots of reticulocyte lysate supernatant were incubated at optimal time and temperature; 90 min at room temperature (ERβ) and 18 hrs at 4° C. (ERα), with increasing (0.01-100 nm) concentrations of [3H] […] These times were determined empirically and represent optimal binding of receptor with estrogen. Nonspecific binding was assessed using a 300-fold excess of the ER agonist diethylstilbestrol, in parallel tubes. Following incubation, bound and unbound [3H]E2 were separated by passing the incubation reaction through a 1 mL lipophilic Sephadex LH-20 (Sigma-Aldrich Co., Saint Louis, Mo.) column Columns were constructed by packing a disposable pipette tip (1 mL; Labcraft, Curtin Matheson Scientific, Inc, Houston, Tex.) with TEGMD (10 mm Tris-Cl, 1.5 mm EDTA, 10% glycerol, 25 mm molybdate, and 1 mm dithiothreitol, pH 7.4)-saturated Sephadex according to previously published protocols (Wanda et al., 1986; O'Keefe and Handa, 1990). For chromatography, the columns were re-equilibrated with TEGMD (100 μL), and the incubation reactions were added individually to each column and allowed to incubate on the column for an additional 30 min. Following this incubation, 600 μL of TEGMD were added to each column, flow-through was collected, 4 mL scintillation fluid was added, and samples were counted (5 min each) in an 2900 TR Packard scintillation counter (Packard Bioscience, Meriden, Conn.).
Competition binding studies were used to assess the estrogenic properties of equol's S-equol and R-equol enantiomers. Based on the ability of S and R to compete with [3H]

[4] = 25 consecutive days, n = 4, not significant vs control
[5] = after 15 days of treatment, vs controls

testes weight ([1]; 28 days after start of injections)	SMILES	reduction in adipose tissue mass ([1]; 101-day-old rats, vs controls)	body weights and average body weight gains ([1]; at 80 and 88 days of age, 1 or 5 mg racemic equol sc, vs controls)	average body weight gains ([1]; at 95 and 101 days, vs control)	AVPV Volumes [2, 4] [mm^3 × 10^−3]	SDN Volumes [2, 4] [mm^3 × 10^−3]	number of entries into the open arms of the EPM [2, 5]	time spent on the open arms of the EPM [2, 5]	body weights ([2]; equol 2.5 mg/Kg sc daily for 25 days, vs control)	serum equol levels ([2]; equol-treated animals)	relative binding affinity for ERα compared with 17β-estradiol, fold less [3]	Kd ([3]; competition with [3H]E2, in vitro translated ER) [nM]
no significant alterations	Oc1ccc(C2COc3cc(O)ccc3C2)cc1 (racemic) [equol, 7-hydroxy-3(4′hydroxyphenyl)-chroman]	approximately 33%	not significantly different from controls	significantly reduced	10.59 ± 1.6	46.3 ± 3.1	significantly greater	significantly greater	significantly decreased	equivalent to consuming a phytoestrogen-rich soy diet		
	Oc1ccc([C@@H]2COc3cc(O)ccc3C2)cc1 [R-equol]										210.6 fold and 211 fold	27.4 ± 3.8
